Laboratory results from PMC7586811 (Journal of Clinical Pharmacology, 2020).
pIC50: −log10 of the molar value. Like-named read-outs stand apart in the source and are kept apart here.

Key:
[1] = Safety and tolerability in healthy participants; assay type: in vivo, human; conditions: for TEAEs considered related to the drug: investigator assessment; for participants who experienced TEAEs: n = 18
[2] = clinical use; cited from earlier work
CYP3A4 [3] = conditions: human liver microsomes; ref data on file, Incyte Corporation; cited from earlier work
human OATP1B and OATP1B3 = conditions: in vitro; ref data on file, Incyte Corporation; cited from earlier work
P‐glycoprotein (P‐gp) [4] = conditions: read-out: P‐gp inhibition IC50; in vitro; ref data on file, Incyte Corporation; cited from earlier work
CYP3A4 [5] = conditions: recombinant human CYP isozymes, earlier in vitro studies; cited from earlier work
[6] = dose range from 5 to 45 mg, relapsed or refractory B‐cell malignancies; cited from earlier work
other PI3K isoforms = conditions: cited from earlier work
[7] = cited from earlier work
[8] = not given; remark: listed apart in the source
P‐glycoprotein (P‐gp) [9] = conditions: in vitro; ref data on file, Incyte Corporation; cited from earlier work
[10] = phase 1/2 study; cited from earlier work
major CYPs = conditions: earlier in vitro studies; cited from earlier work
[11] = concomitant itraconazole 200 mg versus parsaclisib 10 mg alone
[12] = parsaclisib 10 mg single oral dose alone, fasted, healthy participants, n = 18
[13] = concomitant rifampin 600 mg versus parsaclisib 20 mg alone
[14] = parsaclisib 20 mg single oral dose alone, fasted, healthy participants, n = 18

CO[C@H]1/C=C/O[C@@]2(C)Oc3c(C)c(O)c4c(O)c(c(/C=N/N5CCN(C)CC5)c(O)c4c3C2=O)NC(=O)/C(C)=C\C=C\[C@H](C)[C@H](O)[C@@H](C)[C@@H](O)[C@@H](C)[C@H](OC(C)=O)[C@@H]1C [rifampin, reference compound]
participants reporting generalized pruritus and maculopapular rash ([1]; of all 36 participants, all in cohort 2, considered related to rifampin): 5.6%

C[C@H](Nc1ncnc2[nH]cnc12)c1cc2cccc(Cl)c2c(=O)n1-c1ccccc1 [duvelisib]
associated toxicities [2]: transaminitis (increased alanine and aspartate transaminase levels), colitis, diarrhea, and pneumonitis

CC(=O)N1CCN(c2ccc(OCC3COC(Cn4ccnc4)(c4ccc(Cl)cc4Cl)O3)cc2)CC1 (stereo not shown) [ketoconazole]
effect on parsaclisib metabolism (CYP3A4 [3]): inhibited parsaclisib metabolism

CCC(C)n1ncn(-c2ccc(N3CCN(c4ccc(OCC5COC(Cn6cncn6)(c6ccc(Cl)cc6Cl)O5)cc4)CC3)cc2)c1=O (stereo not shown) [itraconazole, Itraconazole, reference compound]
TEAEs considered related to the drug ([1]; healthy participants): No TEAE was considered related

CCOc1c([C@H](C)n2nc(C)c3c(N)ncnc32)cc(Cl)c(F)c1[C@@H]1CNC(=O)C1 [Parsaclisib]
decrease in geometric mean CL/F [11]: approximately 51%
increase in geometric mean AUC0‐∞ [11]: 107%
increase in geometric mean Cmax [11]: 21%
prolongation of mean t½,β [11]: 59%
reduction of mean Vz/F [11]: approximately 24%
CL/F, Geometric Mean [12]: 2.9 L/h
CL/F, Mean ± SD [12]: 2.9 ± 0.3 L/h
increase in the exposure of parsaclisib (single 10‐mg dose, concomitant itraconazole): approximately 2 fold
substrate of human OATP1B and OATP1B3 (human OATP1B and OATP1B3): not likely a substrate
pIC50 (P‐glycoprotein (P‐gp) [4]): 4.74
CYP isozyme responsible for metabolism (CYP3A4 [5]): primarily metabolized by CYP3A4
dose‐exposure relationship at steady state [6]: linear
dose interruptions or reductions, discontinuations, serious AEs, deaths due to TEAEs ([1]; both cohorts): No dose interruptions or reductions, participant discontinuations, serious AEs, or deaths due to TEAEs
participants who experienced TEAEs ([1]; cohort 1: parsaclisib 10 mg + itraconazole 200 mg): 27.8%
participants with grade 4 TEAE (increased creatine phosphokinase) ([1]; cohort 2, day 44, not considered related to parsaclisib or rifampin): 5.6%
participants who experienced TEAEs ([1]; cohort 2: parsaclisib 20 mg + rifampin 600 mg): 44.4%
TEAEs considered related to the drug ([1]; healthy participants): No TEAE was considered related
participants reporting headache (most common TEAE) ([1]; of all 36 participants, all cases in cohort 2 (parsaclisib + rifampin)): 13.9%
overall safety and tolerability ([1]; single‐dose parsaclisib alone or combined with itraconazole or rifampin, healthy participants): safe and well tolerated
selectivity relative to other PI3K isoforms (other PI3K isoforms): approximately 20 000 fold
major metabolites in clinical plasma samples ([7]; clinical plasma samples, ref data on file, Incyte Corporation): no major metabolites were detected
human‐specific metabolite ([7]; in vitro, rat, dog, and human): no human‐specific metabolite identified
decrease of AUC0‐∞ [8, 13]: 77%
increase in geometric mean CL/F [8, 13]: approximately 4.4 fold
reduction of Cmax [8, 13]: 43%
shortening of mean t½,β [8, 13]: 71%
CL/F, Geometric Mean [8, 14]: 2.9 L/h
CL/F, Mean ± SD [8, 14]: 3.0 ± 0.5 L/h
decrease in the exposure of parsaclisib ([8]; single 20‐mg dose, concomitant rifampin): approximately 4 fold
P‐gp substrate: concentration at which efflux transport is saturated (P‐glycoprotein (P‐gp) [9]): > 100 µM
dose‐limiting toxicities [10]: no dose‐limiting toxicities identified
inhibition of major CYPs (major CYPs): not an inhibitor of major CYPs tested

CC[C@H](Nc1ncnc2[nH]cnc12)c1nc2cccc(F)c2c(=O)n1-c1ccccc1 [idelalisib]
associated toxicities [2]: transaminitis (increased alanine and aspartate transaminase levels), colitis, diarrhea, and pneumonitis
